The target in experiment [1] is T1, eIF4E minor variant D127N (N127) (Homo sapiens, UniProt P06730, D127N).
T1 construct: made in house; host or cells: E. coli BL21-CodonPlus (DE3)-RIPL
In words: Isothermal titration calorimetry, eIF4E minor variant. Format: binding. The method, then: ITC experiments were performed on either a MicroCal VP-ITC or a MicroCal Auto-ITC200 at 25 °C in a buffer comprising 50 mM HEPES, 100 mM NaCl, 1 mM TCEP and 5% DMSO at pH 7.5. Typical titrations on the MicroCal VP-ITC were performed using 17 × 16.4 µL injections with a 250 s spacing between each injection and with a stirring speed of 307 rpm. Typical titrations on the MicroCal Auto-ITC200 were performed using 12 × 3 µL injections with a 150 s spacing between each injection and with a stirring speed of 750 rpm. ITC data analyses were performed with Origin 7.0 software using the “One Set of Sites” model.
(In general: Isothermal titration calorimetry measures the heat released or taken up as one component is titrated into another.)

The next experiment deals with c-Myc-activity. In words: c-Myc-regulated luciferase reporter in SW620 cells. Type of experiment: cell-based, human. As to conditions: for c-Myc, Average / CMV, Average: SW620; for c-Myc, Average: c-Myc-regulated firefly luciferase reporter; for CMV, Average: constitutive CMV promoter-regulated renilla luciferase reporter. How it is done:
Luminescence was measured using the Dual-glo luciferase assay (mean ± SEM from 3 biological replicates). b SW620 cells were transfected with a c-Myc-regulated firefly luciferase expression reporter or a constitutive CMV promoter-regulated renilla luciferase reporter. Cells were treated for 24 hr with 1 or 10 µM compound 4 or the […] kinase inhibitor AZD8055 as positive control (mean ± SEM from 3 biological replicates). An ordinary one-way ANOVA with Tukey multiple comparisons test was performed comparing c-Myc-regulated firefly luciferase expression or CMV-regulated Renilla luciferase expression following the different treatments. For c-Myc-regulated firefly luciferase expression, all significant p values […]
were <0.0001. […]
Source data is located in the Supplementary Source Data file
Background: A reporter such as luciferase makes a cellular process visible.

The target of another experiment is T2, full-length eIF4G:eIF4E (Homo sapiens, UniProt P06730).
T2 construct: endogenous in cells; host or cells: HeLa, SW620 or H1299 cells (lysates; intact H1299 cells in A13)
In words: eIF4G:eIF4E binding, summary over cell line lysates. Type of experiment: biochemical. The method, then:
This assay uses plates with carbon electrodes and electro-chemiluminescent labels (SULFO-TAGs) that are conjugated to detection antibodies. When an electric current is applied to the plate electrodes the SULFO-TAG labels will emit light that is measured to quantify analytes in the sample. […] For measuring exogenously expressed FLAG-tagged-eIF4E, 96-well Multiarray SECTOR plates with carbon electrodes (MSD, cat#L15XB) were coated with 25 ul of 4 µg/ml anti-FLAG M2 (Sigma-aldrich, cat#F1804, RRID:AB_262044) in PBS for 1 hr at RT with shaking. The plates were washed with 3 ×150 µl/well MSD wash buffer (cat#R61AA-1; 0.2% Tween-20 in PBS), then blocked with 150 µl/well block buffer (MSD, cat# R93AA) for 1 h. […] The incubated plates were washed 4x in 150 µl in MSD wash buffer and were re-blocked by the addition of 25 μl of blocking buffer containing a 1:500 dilution of the secondary antibody and incubated for 1 hr at RT with rotational shaking. […] Plates were then washed again 4x in 150 µl in MSD wash buffer and 25 μl of a 1:50 dilution of Goat anti-rabbit Sulfo-Tag (MSD, Cat# R32AB-1) in MSD blocking buffer was added and the plates incubated for 1 h at RT with rotational shaking. After a final wash step, 150 μl Read Buffer T4X (MSD, Cat# R92-TC2) was added and the plate read using the MSD QuickPlex SQ 120 plate reader.

Experiment [2] concerns eIF4E-dTAG (FKBP12^F36V-tagged eIF4E). In words: Immunoblot of eIF4E-dTAG degradation in H1299 eIF4E-dTAG clones. Format: cell-based, human. The settings on record: 6 h at ≈ 2–5x the IC50. How it is done:
Treatment of isolated clones with the heterobifunctional dTAG^V−1 molecule recruits E3 ligase VHL to degrade eIF4E-dTAG. […] Parental H1299 cells and the selected eIF4E-dTAG clones were treated with 0.5 and 1 µM dTAG^V−1 for 6, 8, or 16 h. Vinculin was used as a loading control (n = 3 biological replicates). c Real-time cell growth measurements of the selected eIF4E-dTAG clones treated with 0.5 or 1 µM dTAG^V−1. Cell confluency (%) was monitored every 4 h over 6 days using Incucyte Zoom. Significance was determined using a one-way ANOVA with Tukey multiple comparisons test comparing dTAG^V−1 treatment with the control in each cell line. […] Significant differences between control and treated samples were determined using MSstats. […]
After seeding overnight in 6 well plates (Corning, cat#353046), cells were treated with compounds for the indicated times and concentration, harvested and the cell pellet lysed on ice in cell lysis buffer (Cell Signaling, cat#9803), supplemented with 1x Halt^TM protease inhibitor cocktail (Fisher Scientific, cat#78429) and cOmplete^TM protease inhibitor cocktail (Sigma-Aldrich, cat#11836153001) for 1 hr. Protein was quantified using BCA protein kit (Fisher Scientific, cat#23225). […] Quantitative densitometry analysis of protein bands was performed using Image J v1.53 software.
On the technique in general: In western blotting, separated proteins are transferred to a membrane and probed.

Values joined by “and” are separate entries in the source; they are usually repeats but may differ in a detail not shown here. Identical values can stand only once.

T1 sequence (P06730 36-217 D127N): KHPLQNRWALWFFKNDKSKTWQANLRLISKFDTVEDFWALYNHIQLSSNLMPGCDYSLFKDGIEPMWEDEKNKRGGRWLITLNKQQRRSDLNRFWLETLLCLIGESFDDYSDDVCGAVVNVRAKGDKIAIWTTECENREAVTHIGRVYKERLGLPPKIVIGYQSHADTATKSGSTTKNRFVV
T2 sequence (P06730 2-217 limits assumed): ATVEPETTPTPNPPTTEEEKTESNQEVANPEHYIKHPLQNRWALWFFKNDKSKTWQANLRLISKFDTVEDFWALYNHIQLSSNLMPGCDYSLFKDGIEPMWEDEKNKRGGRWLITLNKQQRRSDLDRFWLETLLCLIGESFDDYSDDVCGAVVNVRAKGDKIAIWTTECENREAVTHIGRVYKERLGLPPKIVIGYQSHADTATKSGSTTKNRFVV

Broadly, the Kd is the equilibrium constant for the complex coming apart. A word on the IC50: it is the point on the concentration scale where inhibition reaches its midpoint. Turning to `CC[C@H](O[C@H](C)CO)c1ccc(-c2ccccc2F)cc1NCCO` [Compound 4], in experiment [1] (ITC, eIF4E D127N), the “enthalpic contribution DH” value is -12.0 kcal/mol and -12.0 ± 0.5 kcal/mol; the “entropic penalty -TDS” value is 1.4 ± 0.5 kcal/mol. Further, in experiment [1] (minor variant D127N), the “LE (ligand efficiency)” value was 0.42 (kcal/mol)/heavy atom. In addition, the Kd in experiment [1] (read-out: eIF4E Kd, ITC, minor variant D127N) was 17 nM. Besides, in the experiment on c-Myc-activity (1μM), the “c-Myc, Average” value is 80.09 and the “CMV, Average” value is reported as 89.27. Besides, in the experiment with c-Myc-activity (10μM), the “c-Myc, Average” value worked out at 67.68 and the “CMV, Average” value worked out at 82.92. Further, the “activity in c-Myc reporter assay” value in the experiment on c-Myc-activity (SW620 cells, 1 or 10 µM, 24 hr) was “showed no activity”. In addition, on full-length eIF4G:eIF4E (read-out: EC50s, eIF4G:eIF4E electro-chemiluminescent binding assay, three different cell line lysates), the EC50 was in the range of 1400 to 2600 nM. The half-inhibitory concentration (IC50) on full-length eIF4G:eIF4E (read-out: full-length eIF4G:eIF4E IC50, lysates and intact cell engagement assays) lay in the range of 1000 to 2000 nM.
As to `CC[C@H](C(=O)N1CCCC[C@H]1C(=O)O[C@H](CCc1ccc(OC)c(OC)c1)c1ccccc1OCC(=O)NCCCCCCC(=O)N[C@H](C(=O)N1C[C@H](O)C[C@H]1C(=O)N[C@@H](C)c1ccc(-c2scnc2C)cc1)C(C)(C)C)c1cc(OC)c(OC)c(OC)c1` [dTAG^V-1], the “loss of eIF4E-dTAG” value in experiment [2] is recorded as “near complete loss of eIF4E-dTAG”.

The record behind these values is publication PMC11868579 (Nature Communications, 2024).
